Measured values: patent US7883888B2, “Peptides selectively lethal to malignant and transformed mammalian cells” (The Research Foundation —The State University of New York, priority 2000, dated 2011)

What was measured:
[1] = test system: human cancer cells, including homozygously p53 gene-deleted; experiment: toxicity of subject peptides to human cancer cells; assay type: cell-based
Experimental: The following experiment was performed to compare effectiveness of subject peptides having the leader sequence attached to the amino terminal end.

TUC-3 cells = experiment: TUC-3 transformed pancreatic cancer cells in culture treated with synthetic peptide; assay type: cell-based, rat; details: for EFFECT: Table 3, leader is SEQ ID NO:4
Text: (§1) A line of rat pancreatic acinar cells (BMRPA.430) grown in culture was transformed with K-ras.

BMRPA.430 cells = experiment: normal pancreatic acinar cells BMRPA.430 in culture treated with synthetic peptide; assay type: cell-based, rat; details: 50 μg/ml; normal cell line
Text: as §1

[2] = test system: human breast carcinoma cell lines; experiment: human breast carcinoma cell lines treated with synthetic peptide; assay type: cell-based; details: 100 μg/ml
Melanoma cells = Melanoma cells treated with synthetic peptide; assay type: cell-based; details: 100 μg/ml
[3] = test system: non-malignant and non-transformed fibroblast cell lines; experiment: non-malignant, non-transformed fibroblast cell lines treated with synthetic peptide; assay type: cell-based, human; details: 100 μg/ml
[4] = test system: non-malignant and non-transformed human breast cell lines; experiment: non-malignant, non-transformed human breast cell lines treated with synthetic peptide; assay type: cell-based; details: 100 μg/ml
HeLa cells = HeLa cells treated with synthetic peptide; assay type: cell-based; details: 100 μg/ml
[5] = test system: malignant or normal cells; experiment: control peptide with leader on malignant or normal cells; assay type: cell-based; details: leader SEQ ID NO:4 at carboxy terminal end of control peptide
Text: When the leader sequence set forth in SEQ ID NO:4 was positioned at the carboxy terminal end of PNC29, a control protein having the following amino acid sequence: [sequence]

[6] = test system: pancreatic carcinoma cells BMRPA1. TUC-3; experiment: s.c. BMRPA1.TUC-3 xenotransplant in Nu/Nu mice, established tumors, osmotic pump delivery (Example II); assay type: in vivo
Experimental: Nu/Nu mice (Harlan Laboratories, Indianapolis, Ind., n=10) and weighing 20-22 g, were xenotransplanted subcutaneously (s.c.) with live pancreatic carcinoma cells BMRPA1. TUC-3 (1×10^6 cells/mouse) in the left hind region.
Each group was implanted s.c. with Alzet® osmotic pumps to deliver in a constant rate and over a defined period of 14 days a total volume of 0.095 ml volume of normal saline containing the respective peptide at a concentration of 20 mg/mouse. […] The pumps were filled according to the manufacturers guidelines and under sterile conditions The pumps were implanted s.c. on the left flank of the anaesthetized mice by creating a pocket underneath the mouse skin into which the tiny pumps were inserted. Each pocket was closed with a simple suture. From their inside chamber the pumps delivered continuously 0.25 μl/hr into each mouse. The mice were observed until they had recovered from the surgery when they were returned to the isolation ward of the animal facility. Since the animals were Nu/Nu mice and, thus, immuno-compromised they are highly susceptible when exposed to pathogens. Surgery and all preceding and post-surgical treatments were therefore performed in a sterile hood environment.

cultured cancer cells = cultured cancer cells treated with peptide without leader or with leader alone; assay type: cell-based; details: 100 μg/ml
Experimental: When cultured cancer cells were treated with a peptide with the primary structure of SEQ ID NO:1 without a leader sequence attached, at a dosage of 100 μg/ml, the cells were unaffected. Similarly, when cultured cancer cells were treated with leader sequence SEQ ID NO:4, the presently preferred leader sequence, at the same dosage, the cell were also unaffected.

Question: “PNC 21: p53 seq. 12-20 (PPLSQETFS) (SEQ ID NO: 2)-Leader; leader is KKWKMRRNQFWVKVQRG (SEQ ID NO:4) (PPLSQETFSKKWKMRRNQFWVKVQRG; amino acid residue 12-20 of human p53 protein; penetration leader sequence from antennapedia)” was tested. Which “toxicity to a wide variety of human cancer cells” value [1] did it give?
Answer: The value was “strongly toxic”.

Question: What about the EFFECT (TUC-3 cells) of the same substance?
Answer: Its EFFECT is “Cytotoxic”.

Question: What does the source list for “PNC 27: p53 seq. 12-26 (PPLSQETFSDLWKLL) (SEQ ID NO: 1)-Leader; leader is KKWKMRRNQFWVKVQRG (SEQ ID NO:4) (PPLSQETFSDLWKLLKKWKMRRNQFWVKVQRG; amino acid residue 12-26 of human p53 protein; penetration leader sequence from antennapedia)”?
Answer: effect on BMRPA.430 cells (BMRPA.430 cells): not affected; cell death in human breast carcinoma cell lines [2]: cell death was observed; cell death in Melanoma cells (Melanoma cells): cell death was observed; toxicity to a wide variety of human cancer cells [1]: strongly toxic; effect on non-malignant and non-transformed fibroblast cell lines [3]: no effect; effect on non-malignant and non-transformed human breast cell lines [4]: no effect; death of TUC-3 cells (TUC-3 cells; 100 μg/ml): died within three to four days; EFFECT (TUC-3 cells): Cytotoxic; cell death in HeLa cells (HeLa cells): cell death was observed

Question: What does the source list for “PNC-29: control peptide of similar size, amino acid sequence MPFSTGKRIMLGE (SEQ ID NO: 25); in b48 with leader SEQ ID NO:4 at carboxy end (used as a control)”?
Answer: effect on malignant or normal cells [5]: no effect; effect on normal or tumor cells ([6]; control peptide, s.c. pump, 20 mg/mouse): no effect; tumor diameter ([6]; over the 2-week treatment and follow-up period): 10 to 16 mm; tumor growth ([6]; s.c. pump over 14 days, 20 mg/mouse, tumors 3 to 6 mm at start): kept growing at a continuous rate

Question: Which “effect on cultured cancer cells” value (cultured cancer cells) does the source give for “SEQ ID NO:1 without a leader sequence attached: peptide PPLSQETFSDLWKLL (SEQ ID NO:1) without a leader sequence attached (amino acid residue 12-26 of human p53 protein)” here?
Answer: The value was “unaffected”.

Question: “SEQ ID NO:4: penetratin leader sequence from antennapedia protein alone, KKWKMRRNQFWVKVQRG (penetration leader sequence from antennapedia)” was tested. Which “effect on cultured cancer cells” value (cultured cancer cells) did it give?
Answer: The value was “unaffected”.
